Converted amounts (≈) assume the structure as drawn.
How the values were obtained:
Assay type in all cases: functional
Staphylococcus aureus [1] = assay: Antimicrobial activity against Staphylococcus aureus MLS16 MTCC2940 measured after 24 hrs by well-diffusion method; conditions: MLS16 MTCC2940, 24 h
Bacillus subtilis [2] = assay: Bactericidal activity against Bacillus subtilis MTCC121 measured after 24 hrs; conditions: MTCC121, 24 h
Candida albicans [3] = assay: Antimicrobial activity against Candida albicans MTCC4748 measured after 24 hrs by well-diffusion method; conditions: MTCC4748, 24 h
Bacillus subtilis [4] = assay: Antimicrobial activity against Bacillus subtilis MTCC121 measured after 24 hrs by well-diffusion method; conditions: MTCC121, 24 h
Micrococcus luteus [5] = assay: Antimicrobial activity against Micrococcus luteus MTCC2470 measured after 24 hrs by well-diffusion method; conditions: MTCC2470, 24 h
Micrococcus luteus [6] = assay: Bactericidal activity against Micrococcus luteus MTCC2470 measured after 24 hrs; conditions: MTCC2470, 24 h
Candida albicans [7] = assay: Antimicrobial activity against Candida albicans MTCC3018 measured after 24 hrs by well-diffusion method; conditions: MTCC3018, 24 h
Candida albicans [8] = assay: Antimicrobial activity against Candida albicans MTCC3017 measured after 24 hrs by well-diffusion method; conditions: MTCC3017, 24 h
Candida albicans [9] = assay: Antimicrobial activity against Candida albicans MTCC227 measured after 24 hrs by well-diffusion method; conditions: MTCC227, 24 h
Staphylococcus aureus [10] = assay: Antimicrobial activity against Staphylococcus aureus MTCC96 measured after 24 hrs by well-diffusion method; conditions: MTCC96, 24 h
Staphylococcus aureus [11] = assay: Bactericidal activity against Staphylococcus aureus MLS16 MTCC2940 measured after 24 hrs; conditions: MLS16 MTCC2940, 24 h
Candida albicans [12] = assay: Antimicrobial activity against Candida albicans MTCC183 measured after 24 hrs by well-diffusion method; conditions: MTCC183, 24 h
Pseudomonas aeruginosa = assay: Antimicrobial activity against Pseudomonas aeruginosa MTCCM2453 measured after 24 hrs by well-diffusion method; conditions: MTCCM2453, 24 h
Candida parapsilosis [13] = assay: Antimicrobial activity against Candida parapsilosis MTCC1744 measured after 24 hrs by well-diffusion method; conditions: Lodderomyces parapsilosis, MTCC1744, 24 h
Candida albicans [14] = assay: Antimicrobial activity against Candida albicans MTCC1637 measured after 24 hrs by well-diffusion method; conditions: MTCC1637, 24 h
Raoultella planticola = assay: Antimicrobial activity against Klebsiella planticola MTCC530 measured after 24 hrs by well-diffusion method; conditions: MTCC530, 24 h
Candida albicans [15] = assay: Antimicrobial activity against Candida albicans MTCC3958 measured after 24 hrs by well-diffusion method; conditions: MTCC3958, 24 h
Escherichia coli = assay: Antimicrobial activity against Escherichia coli MTCC739 measured after 24 hrs by well-diffusion method; conditions: MTCC739, 24 h
Staphylococcus aureus [16] = assay: Bactericidal activity against Staphylococcus aureus MTCC96 measured after 24 hrs; conditions: MTCC96, 24 h
Candida albicans [17] = assay: Antimicrobial activity against Candida albicans MTCC854 measured after 24 hrs by well-diffusion method; conditions: MTCC854, 24 h
Candida albicans [18] = assay: Antimicrobial activity against Candida albicans MTCC7315 measured after 24 hrs by well-diffusion method; conditions: MTCC7315, 24 h
Candida albicans [19] = assay: Fungicidal activity against Candida albicans MTCC183 measured after 24 hrs; conditions: MTCC183, 24 h
Candida albicans [20] = assay: Fungicidal activity against Candida albicans MTCC7315 measured after 24 hrs; conditions: MTCC7315, 24 h
Nakaseomyces glabratus [21] = assay: Fungicidal activity against Candida glabrata MTCC3019 measured after 24 hrs; conditions: MTCC3019, 24 h
Pichia kudriavzevii [22] = assay: Anti-biofilm activity against Candida krusei MTCC3020 measured after 24 hrs by crystal violet-staining based method; conditions: MTCC3020, 24 h
Candida albicans [23] = assay: Fungicidal activity against Candida albicans MTCC3018 measured after 24 hrs; conditions: MTCC3018, 24 h
Micrococcus luteus [24] = assay: Anti-biofilm activity against Micrococcus luteus MTCC2470 measured after 24 hrs by crystal violet-staining based method; conditions: MTCC2470, 24 h
Pichia kudriavzevii [25] = assay: Fungicidal activity against Candida krusei MTCC3020 measured after 24 hrs; conditions: MTCC3020, 24 h
Staphylococcus aureus [26] = assay: Anti-biofilm activity against Staphylococcus aureus MLS16 MTCC2940 measured after 24 hrs by crystal violet-staining based method; conditions: MLS16 MTCC2940, 24 h
Nakaseomyces glabratus [27] = assay: Antimicrobial activity against Candida glabrata MTCC3019 measured after 24 hrs by well-diffusion method; conditions: MTCC3019, 24 h
Candida albicans [28] = assay: Fungicidal activity against Candida albicans MTCC854 measured after 24 hrs; conditions: MTCC854, 24 h
Candida albicans [29] = assay: Fungicidal activity against Candida albicans MTCC1637 measured after 24 hrs; conditions: MTCC1637, 24 h
Pichia kudriavzevii [30] = assay: Antimicrobial activity against Candida krusei MTCC3020 measured after 24 hrs by well-diffusion method; conditions: MTCC3020, 24 h
Candida parapsilosis [31] = assay: Fungicidal activity against Candida parapsilosis MTCC1744 measured after 24 hrs; conditions: Lodderomyces parapsilosis, MTCC1744, 24 h
Bacillus subtilis [32] = assay: Anti-biofilm activity against Bacillus subtilis MTCC121 measured after 24 hrs by crystal violet-staining based method; conditions: MTCC121, 24 h
Pichia sporocuriosa = assay: Antimicrobial activity against Issatchenkia hanoiensis MTCC4755 measured after 24 hrs by well-diffusion method; conditions: MTCC4755, 24 h
Candida albicans [33] = assay: Fungicidal activity against Candida albicans MTCC227 measured after 24 hrs; conditions: MTCC227, 24 h
Candida albicans [34] = assay: Fungicidal activity against Candida albicans MTCC4748 measured after 24 hrs; conditions: MTCC4748, 24 h
Candida albicans [35] = assay: Fungicidal activity against Candida albicans MTCC3958 measured after 24 hrs; conditions: MTCC3958, 24 h
[Candida] aaseri = Fungicidal activity against Candida aaseri MTCC1962 measured after 24 hrs; conditions: Yamadazyma aaseri, MTCC1962, 24 h
Staphylococcus aureus [36] = assay: Anti-biofilm activity against Staphylococcus aureus MTCC96 measured after 24 hrs by crystal violet-staining based method; conditions: MTCC96, 24 h

## CCCCCCC(C/C=C\CCCCCCCC(=O)OC)NC(=O)[C@H](C)N (some centres not stated)
Staphylococcus aureus [1]
  MIC: 15.6 µg/mL (≈ 40.8 µM)
Bacillus subtilis [2]
  MBC: 15.6 µg/mL (≈ 40.8 µM)
Candida albicans [3]
  MIC: 15.6 µg/mL (≈ 40.8 µM)
Bacillus subtilis [4]
  MIC: 15.6 µg/mL (≈ 40.8 µM)
Micrococcus luteus [5]
  MIC: 31.2 µg/mL (≈ 81.5 µM)
Micrococcus luteus [6]
  MBC: 15.6 µg/mL (≈ 40.8 µM)
Candida albicans [7]
  MIC: 15.6 µg/mL (≈ 40.8 µM)
Candida albicans [8]
  MIC: 15.6 µg/mL (≈ 40.8 µM)
Candida albicans [9]
  MIC: 15.6 µg/mL (≈ 40.8 µM)
Staphylococcus aureus [10]
  MIC: 7.8 µg/mL (≈ 20.4 µM)
Staphylococcus aureus [11]
  MBC: 15.6 µg/mL (≈ 40.8 µM)
Candida albicans [12]
  MIC: 15.6 µg/mL (≈ 40.8 µM)
Pseudomonas aeruginosa
  MIC: > 125 µg/mL
Candida parapsilosis [13]
  MIC: 7.8 µg/mL (≈ 20.4 µM)
Candida albicans [14]
  MIC: 15.6 µg/mL (≈ 40.8 µM)
Raoultella planticola
  MIC: > 125 µg/mL
Candida albicans [15]
  MIC: 7.8 µg/mL (≈ 20.4 µM)
Escherichia coli
  MIC: > 125 µg/mL
Staphylococcus aureus [16]
  MBC: 15.6 µg/mL (≈ 40.8 µM)
Candida albicans [17]
  MIC: 15.6 µg/mL (≈ 40.8 µM)
Candida albicans [18]
  MIC: 15.6 µg/mL (≈ 40.8 µM)

## CCCCCCC(C/C=C\CCCCCCCC(=O)OC)NC(=O)[C@@H](N)[C@@H](C)CC (some centres not stated)
Staphylococcus aureus [1]
  MIC: > 125 µg/mL
Candida albicans [3]
  MIC: > 125 µg/mL
Bacillus subtilis [4]
  MIC: > 125 µg/mL
Micrococcus luteus [5]
  MIC: > 125 µg/mL
Candida albicans [7]
  MIC: > 125 µg/mL
Candida albicans [8]
  MIC: > 125 µg/mL
Candida albicans [9]
  MIC: > 125 µg/mL
Staphylococcus aureus [10]
  MIC: > 125 µg/mL
Candida albicans [12]
  MIC: > 125 µg/mL
Pseudomonas aeruginosa
  MIC: > 125 µg/mL
Candida albicans [14]
  MIC: > 125 µg/mL
Raoultella planticola
  MIC: > 125 µg/mL
Candida albicans [15]
  MIC: > 125 µg/mL
Escherichia coli
  MIC: > 125 µg/mL
Candida albicans [17]
  MIC: > 125 µg/mL
Candida albicans [18]
  MIC: > 125 µg/mL

## CCCCCCC(C/C=C\CCCCCCCC(=O)OC)NC(=O)CN (configuration not stated)
Candida albicans [19]
  MFC: 7.8 to 31.2 µg/mL (≈ 21.2 to 84.7 µM)
Candida albicans [20]
  MFC: 7.8 to 31.2 µg/mL (≈ 21.2 to 84.7 µM)
Nakaseomyces glabratus [21]
  MFC: 7.8 to 31.2 µg/mL (≈ 21.2 to 84.7 µM)
Staphylococcus aureus [1]
  MIC: 7.8 µg/mL (≈ 21.2 µM)
Bacillus subtilis [2]
  MBC: 7.8 µg/mL (≈ 21.2 µM)
Candida albicans [3]
  MIC: 7.8 µg/mL (≈ 21.2 µM)
Pichia kudriavzevii [22]
  IC50: 4.1 µg/mL (≈ 11.1 µM)
Candida albicans [23]
  MFC: 7.8 to 31.2 µg/mL (≈ 21.2 to 84.7 µM)
Bacillus subtilis [4]
  MIC: 7.8 µg/mL (≈ 21.2 µM)
Micrococcus luteus [24]
  IC50: 1.9 µg/mL (≈ 5.16 µM)
Micrococcus luteus [5]
  MIC: 3.9 µg/mL (≈ 10.6 µM)
Pichia kudriavzevii [25]
  MFC: 7.8 µg/mL (≈ 21.2 µM)
Staphylococcus aureus [26]
  IC50: 4.1 µg/mL (≈ 11.1 µM)
Micrococcus luteus [6]
  MBC: 7.8 µg/mL (≈ 21.2 µM)
Candida albicans [7]
  MIC: 7.8 µg/mL (≈ 21.2 µM)
Nakaseomyces glabratus [27]
  MIC: 7.8 µg/mL (≈ 21.2 µM)
Candida albicans [28]
  MFC: 7.8 to 31.2 µg/mL (≈ 21.2 to 84.7 µM)
Candida albicans [8]
  MIC: 7.8 µg/mL (≈ 21.2 µM)
Candida albicans [29]
  MFC: 7.8 to 31.2 µg/mL (≈ 21.2 to 84.7 µM)
Candida albicans [9]
  MIC: 7.8 µg/mL (≈ 21.2 µM)
Pichia kudriavzevii [30]
  MIC: 7.8 µg/mL (≈ 21.2 µM)
Staphylococcus aureus [10]
  MIC: 3.9 µg/mL (≈ 10.6 µM)
Candida parapsilosis [31]
  MFC: 7.8 to 31.2 µg/mL (≈ 21.2 to 84.7 µM)
Staphylococcus aureus [11]
  MBC: 7.8 µg/mL (≈ 21.2 µM)
Bacillus subtilis [32]
  IC50: 2.9 µg/mL (≈ 7.87 µM)
Candida albicans [12]
  MIC: 7.8 µg/mL (≈ 21.2 µM)
Pseudomonas aeruginosa
  MIC: > 125 µg/mL
Pichia sporocuriosa
  MIC: 7.8 µg/mL (≈ 21.2 µM)
Candida parapsilosis [13]
  MIC: 7.8 µg/mL (≈ 21.2 µM)
Candida albicans [14]
  MIC: 7.8 µg/mL (≈ 21.2 µM)
Raoultella planticola
  MIC: > 125 µg/mL
Candida albicans [33]
  MFC: 7.8 to 31.2 µg/mL (≈ 21.2 to 84.7 µM)
Candida albicans [15]
  MIC: 7.8 µg/mL (≈ 21.2 µM)
Escherichia coli
  MIC: > 125 µg/mL
Candida albicans [34]
  MFC: 7.8 to 31.2 µg/mL (≈ 21.2 to 84.7 µM)
Staphylococcus aureus [16]
  MBC: 7.8 µg/mL (≈ 21.2 µM)
Candida albicans [17]
  MIC: 7.8 µg/mL (≈ 21.2 µM)
Candida albicans [35]
  MFC: 7.8 to 31.2 µg/mL (≈ 21.2 to 84.7 µM)
Candida albicans [18]
  MIC: 7.8 µg/mL (≈ 21.2 µM)
[Candida] aaseri
  MFC: 7.8 to 31.2 µg/mL (≈ 21.2 to 84.7 µM)
Staphylococcus aureus [36]
  IC50: 2.1 µg/mL (≈ 5.7 µM)

## O=C(O)c1cn(C2CC2)c2cc(N3CCNCC3)c(F)cc2c1=O [CIPROFLOXACIN]
Staphylococcus aureus [1]
  MIC: 0.9 µg/mL (≈ 2.72 µM)
Bacillus subtilis [2]
  MBC: 0.7 to 1.9 µg/mL (≈ 2.11 to 5.73 µM)
Bacillus subtilis [4]
  MIC: 0.9 µg/mL (≈ 2.72 µM)
Micrococcus luteus [5]
  MIC: 0.9 µg/mL (≈ 2.72 µM)
Micrococcus luteus [6]
  MBC: 0.7 to 1.9 µg/mL (≈ 2.11 to 5.73 µM)
Staphylococcus aureus [10]
  MIC: 0.9 µg/mL (≈ 2.72 µM)
Staphylococcus aureus [11]
  MBC: 0.7 to 1.9 µg/mL (≈ 2.11 to 5.73 µM)
Pseudomonas aeruginosa
  MIC: 0.9 µg/mL (≈ 2.72 µM)
Raoultella planticola
  MIC: 0.9 µg/mL (≈ 2.72 µM)
Escherichia coli
  MIC: 0.9 µg/mL (≈ 2.72 µM)
Staphylococcus aureus [16]
  MBC: 0.7 to 1.9 µg/mL (≈ 2.11 to 5.73 µM)

## Clc1ccc(COC(Cn2ccnc2)c2ccc(Cl)cc2Cl)c(Cl)c1 (configuration not stated) [MICONAZOLE]
Candida albicans [3]
  MIC: 7.8 µg/mL (≈ 18.7 µM)
Candida albicans [7]
  MIC: 7.8 µg/mL (≈ 18.7 µM)
Nakaseomyces glabratus [27]
  MIC: 7.8 µg/mL (≈ 18.7 µM)
Candida albicans [8]
  MIC: 7.8 µg/mL (≈ 18.7 µM)
Candida albicans [9]
  MIC: 7.8 µg/mL (≈ 18.7 µM)
Pichia kudriavzevii [30]
  MIC: 7.8 µg/mL (≈ 18.7 µM)
Candida albicans [12]
  MIC: 7.8 µg/mL (≈ 18.7 µM)
Pichia sporocuriosa
  MIC: 7.8 µg/mL (≈ 18.7 µM)
Candida parapsilosis [13]
  MIC: 7.8 µg/mL (≈ 18.7 µM)
Candida albicans [14]
  MIC: 7.8 µg/mL (≈ 18.7 µM)
Candida albicans [15]
  MIC: 7.8 µg/mL (≈ 18.7 µM)
Candida albicans [17]
  MIC: 7.8 µg/mL (≈ 18.7 µM)
Candida albicans [18]
  MIC: 7.8 µg/mL (≈ 18.7 µM)
